{"source": "patent US20240285670A1", "about": "“THERAPEUTIC TREATMENT OF TUMORS BY BLOCKING THE HEME SYNTHESIS-EXPORT AXIS” (Università degli Studi di Torino, priority 2021, published 2024)", "system": "SKCO1 cells", "experiment": "SKCO1 xenograft tumor model in NSG mice", "format": "in vivo", "from_the_text": "(A) Proliferation of Caco2 cells assessed by crystal violet staining at the indicated days; bar=1000 μm. […] Staining quantification is reported in the bar graph as percentage of crystal violet stained area. Data represent mean±SEM, n=4. For statistical analyses, a two-way analysis of variance was used, followed by the Bonferroni correction for multiple group comparisons; *=p<0.05, ***=p<0.001. (B) Caco2 cells viability the day of plating (day 0) and three days after plaiting (day 3). The measure is considered a readout of cell proliferation. […] Data represent mean±SEM, n=3 wells. For statistical analyses, a two-way analysis of variance was used, followed by the Bonferroni correction for multiple group comparisons; *=p<0.05, **=p<0.01. (C, D, E) Representative flow cytometric analyses of apoptosis in synchronized Caco2 (C), SKCO1 (D) and C80 (E) cells. […] Data represent mean±SEM, n=4 wells pooled from two independent experiments. […]\nFor the SKCO1 xenograft model, 8-week-old NOD SCID gamma (NSG) male mice (The Jackson Laboratory, Bar Harbor, ME USA; NOD.Cg-Prkdc^scid Il2rg^tm1Wjl/SzJ, catalog n° 005557, RRID: IMSR_JAX:005557) were housed in a temperature-controlled, pathogen-free environment and used for experimentation. […] Tumor length (L) and width (W) were measured and tumor volume (mm^3) was calculated using the following formula: (L×W^2)/2. […]", "data": [{"substance": "FLVCR1a shRNA: shRNA specifically down-regulating FLVCR1a without targeting FLVCR1b; pLKO.1 lentiviral clone TRCN0000059599, antisense SEQ ID No.: 2 (antisense TTGCTAATGATGCTGTACTGG; sense CCAGTACAGCATCATTAGCAA)", "values": [{"measurement": "tumor size (tumor volume)", "setting": "subcutaneous injection of FLVCR1a-silenced vs scramble SKCO1 cells in NSG mice, 11 weeks", "value": "smaller tumors"}, {"measurement": "tumor histology (hematoxylin and eosin)", "setting": "tumors from FLVCR1a-silenced vs control SKCO1 cells in NSG mice", "value": "higher amount of stroma (mostly fibrous tissue) and, in general, lower cellularity"}]}]}
